Data on twelve compounds can be found in ChEMBL document CHEMBL5579865, “Discovery of Broad-Spectrum Herpes Antiviral Oxazolidinone Amide Derivatives and Their Structure-Activity Relationships” (ACS Med Chem Lett, 2024).

≈ marks a conversion by molar mass, not a printed value. Calls of active or inactive are those of the source. The rule behind the calls is not given here.

The subject of data set [1] is Human alphaherpesvirus 1. The experiment in a line: Antiviral activity against HSV-1 F strain infected in African green monkey Vero cells assessed as reduction in viral replication incubated for 72 hrs by qRT-PCR analysis. The class given is functional, organism-based.
Data set [2] can be described thus: Inhibition of VZV DNA polymerase extracted from baculovirus infected Sf21 cells using Heterodimeric nucleic acid as substrate preincubated with enzyme for 30 mins followed by substrate and dATP addition measured after 60 mins by biotinylated UTP incorporation based AlphaLISA assay. Further details: species or system Human alphaherpesvirus 3. (In general: Alpha assays give light when donor and acceptor beads are brought close together.)

The test system of data set [3] is Human alphaherpesvirus 2. The experiment in a line: Antiviral activity against HSV-2 G strain infected in African green monkey Vero cells assessed as reduction in viral replication incubated for 72 hrs by qRT-PCR analysis. The format is functional, organism-based.
A short description of data set [4]: Inhibition of HCMV DNA polymerase extracted from baculovirus infected Sf21 cells using Heterodimeric nucleic acid as substrate preincubated with enzyme for 30 mins followed by substrate and dATP addition measured after 60 mins by biotinylated UTP incorporation based AlphaLISA assay. Further details: species or system Human betaherpesvirus 5.
Data set [5] deals with Human betaherpesvirus 5. The experiment in a line: Antiviral activity against HCMV AD169 infected in human MRC5 cells assessed as reduction in viral replication incubated for 72 hrs in presence of 50 % serum by qRT-PCR analysis. The format is functional, organism-based. On the technique in general: In qPCR the cycle at which signal appears reflects the starting amount.
Data set [6] has as its system Human alphaherpesvirus 3. The experiment in a line: Antiviral activity against VZV Street infected in human MRC5 cells assessed as reduction in viral replication incubated for 72 hrs by qRT-PCR analysis. The format is functional, organism-based. The note with it: Human alphaherpesvirus 3, Street, MRC5, 72 h.
Data set [7] relates to Human betaherpesvirus 5. The experiment in a line: Antiviral activity against HCMV AD169 infected in human MRC5 cells assessed as reduction in viral replication incubated for 72 hrs in presence of 10 % serum by qRT-PCR analysis. The class given is functional, organism-based. The note with it: Human betaherpesvirus 5, AD169, MRC5, 72 h.
The test system of data set [8] is Human alphaherpesvirus 3. The experiment in a line: Antiviral activity against VZV Street infected in human MeWo cells assessed as reduction in viral replication incubated for 72 hrs by qRT-PCR analysis. The class given is functional, organism-based.
The nature of data set [9]: Solubility in PBS at pH 7. The format is physicochemical.
Data set [10] in a line: MRT in Wistar rat at 0.05 mg/kg,iv or 10 mg/kg,po administration. The class given is ADME, organism-based. The settings on record: in vivo.
The target in data set [11] is Sodium channel protein type 5 subunit alpha (Homo sapiens, UniProt Q14524). The experiment in a line: Inhibition of Nav1.5 (unknown origin).
Data set [12] in a line: Unbound volume of distribution in Wistar rat at 0.05 mg/kg,iv or 10 mg/kg,po administration. The class given is ADME, organism-based. The note with it: in vivo.
The nature of data set [13]: Unbound fraction in Wistar rat plasma at 0.05 mg/kg,iv or 10 mg/kg,po administration. The format is ADME, organism-based.
Data set [14] can be described thus: Unbound AUC in Wistar rat at 0.05 mg/kg,iv or 10 mg/kg,po administration. The settings on record: in vivo. The format is ADME, organism-based.
Data set [15] in a line: Unbound clearance in Wistar rat at 0.05 mg/kg,iv administration. The class given is ADME, organism-based. The settings on record: in vivo.
Data set [16] can be described thus: Inhibition of Inward-rectifier potassium channel (unknown origin). The arrangement: species or system Homo sapiens.
Data set [17] has as its target Voltage-dependent L-type calcium channel subunit alpha-1C (Homo sapiens, UniProt Q13936). The experiment in a line: Inhibition of Cav1.2 (unknown origin).
Data set [18] in a line: Metabolic stability in human liver microsomes assessed as intrinsic clearance. The settings on record: read-out: CLH. The format is ADME, Microsome. In general terms: Liver microsomes are a subcellular fraction often used to study metabolism.
Data set [19] can be described thus: Unbound fraction in Wistar rat plasma at 3 mg/kg,iv or 10 mg/kg,po administration. The format is ADME, organism-based.
Data set [20] is described as follows: MRT in Wistar rat at 3 mg/kg,iv or 10 mg/kg,po administration. The class given is ADME, organism-based. The settings on record: in vivo.
A short description of data set [21]: Oral bioavailability in Wistar rat at 10 mg/kg administration. The class given is ADME, organism-based. The settings on record: in vivo.
Data set [22] addresses Voltage-gated inwardly rectifying potassium channel KCNH2 (Homo sapiens, UniProt Q12809). The experiment in a line: Inhibition of hERG by patch-clamp assay. The class given is toxicity.
The nature of data set [23]: Unbound AUC in Wistar rat at 3 mg/kg,iv or 10 mg/kg,po administration. The format is ADME, organism-based. The settings on record: in vivo.
Data set [24] is described as follows: Unbound clearance in Wistar rat at 3 mg/kg,iv administration. The class given is ADME, organism-based. The note with it: in vivo.
Data set [25] can be described thus: Unbound volume of distribution in Wistar rat at 3 mg/kg,iv or 10 mg/kg,po administration. The class given is ADME, organism-based. The note with it: in vivo.
The test system of data set [26] is Cytomegalovirus. The experiment in a line: Antiviral activity against Cytomegalovirus Smith intraperitoneally infected in BALB/c mouse assessed as reduction in viral burden in salivary gland at 25 mg/kg,ip qd administration measured after 10 days by plaque assay. The class given is functional, organism-based. The note with it: time 10.0 day.
Data set [27] has as its system Cytomegalovirus. The experiment in a line: Antiviral activity against Cytomegalovirus Smith intraperitoneally infected in BALB/c mouse assessed as reduction in viral burden in salivary gland at 50 mg/kg,po bid administration measured after 10 days by plaque assay. The class given is functional, organism-based. The settings on record: route ip, time 10.0 day.
The test system of data set [28] is Human alphaherpesvirus 1. The experiment in a line: Antiviral activity against HSV-1 F strain intranasally infected in BALB/c mouse assessed as increase in mouse survival rate at 120 mg/kg,po bid administrated 2 days before viral infection measured after 2 days. The class given is functional, organism-based. The settings on record: time 2.0 day.
The mark [29] stands for this setting: Human alphaherpesvirus 1, F strain, Vero, 72 h, read-out: EC50.
Where [30] appears, read: Human alphaherpesvirus 2, G strain, Vero, 72 h, read-out: EC50.
Setting [31] is: Human betaherpesvirus 5, AD169, MRC5, 72 h, read-out: EC50.
[32] abbreviates: Human alphaherpesvirus 3, Street, MeWo, 72 h, read-out: EC50.

Sodium channel protein type 5 subunit alpha, sequence (Q14524 whole entry): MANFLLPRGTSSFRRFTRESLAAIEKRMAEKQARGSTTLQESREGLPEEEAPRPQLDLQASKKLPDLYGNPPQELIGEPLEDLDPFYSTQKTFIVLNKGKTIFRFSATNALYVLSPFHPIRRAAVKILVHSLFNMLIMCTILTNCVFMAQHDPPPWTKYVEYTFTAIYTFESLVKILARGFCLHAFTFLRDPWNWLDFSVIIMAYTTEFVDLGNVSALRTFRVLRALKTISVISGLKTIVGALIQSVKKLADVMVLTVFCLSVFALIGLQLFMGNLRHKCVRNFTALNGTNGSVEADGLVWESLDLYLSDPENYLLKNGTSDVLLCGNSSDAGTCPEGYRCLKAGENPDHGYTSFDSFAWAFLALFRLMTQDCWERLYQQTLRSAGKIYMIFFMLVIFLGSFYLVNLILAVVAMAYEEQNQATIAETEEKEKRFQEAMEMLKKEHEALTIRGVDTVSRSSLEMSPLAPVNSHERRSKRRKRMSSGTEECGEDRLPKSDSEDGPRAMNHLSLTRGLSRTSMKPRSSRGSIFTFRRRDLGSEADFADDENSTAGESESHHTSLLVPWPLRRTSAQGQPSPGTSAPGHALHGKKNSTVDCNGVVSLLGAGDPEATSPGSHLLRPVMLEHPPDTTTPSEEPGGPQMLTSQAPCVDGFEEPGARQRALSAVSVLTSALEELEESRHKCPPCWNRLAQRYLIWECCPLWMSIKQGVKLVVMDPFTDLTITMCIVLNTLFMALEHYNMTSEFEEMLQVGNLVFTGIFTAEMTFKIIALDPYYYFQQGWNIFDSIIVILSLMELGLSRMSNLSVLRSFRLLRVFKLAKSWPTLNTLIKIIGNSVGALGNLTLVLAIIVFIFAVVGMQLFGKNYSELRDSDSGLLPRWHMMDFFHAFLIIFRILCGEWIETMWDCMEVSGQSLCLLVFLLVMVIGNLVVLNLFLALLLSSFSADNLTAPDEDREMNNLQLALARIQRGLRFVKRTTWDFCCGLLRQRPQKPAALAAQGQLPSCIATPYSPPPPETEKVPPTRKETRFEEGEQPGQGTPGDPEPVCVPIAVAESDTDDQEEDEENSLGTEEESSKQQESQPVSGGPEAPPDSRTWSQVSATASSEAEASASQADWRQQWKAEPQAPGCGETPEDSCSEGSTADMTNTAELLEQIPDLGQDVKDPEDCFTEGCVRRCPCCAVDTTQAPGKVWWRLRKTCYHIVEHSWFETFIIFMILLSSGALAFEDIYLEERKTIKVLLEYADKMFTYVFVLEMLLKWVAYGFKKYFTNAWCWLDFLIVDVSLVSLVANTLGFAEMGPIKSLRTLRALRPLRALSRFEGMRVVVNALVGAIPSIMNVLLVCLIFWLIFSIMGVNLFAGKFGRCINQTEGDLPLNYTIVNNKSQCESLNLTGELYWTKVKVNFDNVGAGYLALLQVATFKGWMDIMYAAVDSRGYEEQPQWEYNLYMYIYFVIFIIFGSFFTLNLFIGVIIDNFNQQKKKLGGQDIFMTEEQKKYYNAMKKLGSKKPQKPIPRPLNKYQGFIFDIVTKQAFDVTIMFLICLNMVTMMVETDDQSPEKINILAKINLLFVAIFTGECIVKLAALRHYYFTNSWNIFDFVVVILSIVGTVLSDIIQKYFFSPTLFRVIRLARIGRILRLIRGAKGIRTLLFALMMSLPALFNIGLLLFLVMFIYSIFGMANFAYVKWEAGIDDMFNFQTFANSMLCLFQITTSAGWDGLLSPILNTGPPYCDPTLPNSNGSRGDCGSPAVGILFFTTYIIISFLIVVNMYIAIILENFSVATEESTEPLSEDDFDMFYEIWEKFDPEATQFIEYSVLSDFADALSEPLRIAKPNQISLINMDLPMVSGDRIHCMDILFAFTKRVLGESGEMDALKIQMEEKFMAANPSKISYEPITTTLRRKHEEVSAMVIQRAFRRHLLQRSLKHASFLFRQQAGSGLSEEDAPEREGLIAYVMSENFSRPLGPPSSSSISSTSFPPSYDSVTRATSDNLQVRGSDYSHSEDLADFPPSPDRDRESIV
Voltage-dependent L-type calcium channel subunit alpha-1C, sequence (Q13936 whole entry): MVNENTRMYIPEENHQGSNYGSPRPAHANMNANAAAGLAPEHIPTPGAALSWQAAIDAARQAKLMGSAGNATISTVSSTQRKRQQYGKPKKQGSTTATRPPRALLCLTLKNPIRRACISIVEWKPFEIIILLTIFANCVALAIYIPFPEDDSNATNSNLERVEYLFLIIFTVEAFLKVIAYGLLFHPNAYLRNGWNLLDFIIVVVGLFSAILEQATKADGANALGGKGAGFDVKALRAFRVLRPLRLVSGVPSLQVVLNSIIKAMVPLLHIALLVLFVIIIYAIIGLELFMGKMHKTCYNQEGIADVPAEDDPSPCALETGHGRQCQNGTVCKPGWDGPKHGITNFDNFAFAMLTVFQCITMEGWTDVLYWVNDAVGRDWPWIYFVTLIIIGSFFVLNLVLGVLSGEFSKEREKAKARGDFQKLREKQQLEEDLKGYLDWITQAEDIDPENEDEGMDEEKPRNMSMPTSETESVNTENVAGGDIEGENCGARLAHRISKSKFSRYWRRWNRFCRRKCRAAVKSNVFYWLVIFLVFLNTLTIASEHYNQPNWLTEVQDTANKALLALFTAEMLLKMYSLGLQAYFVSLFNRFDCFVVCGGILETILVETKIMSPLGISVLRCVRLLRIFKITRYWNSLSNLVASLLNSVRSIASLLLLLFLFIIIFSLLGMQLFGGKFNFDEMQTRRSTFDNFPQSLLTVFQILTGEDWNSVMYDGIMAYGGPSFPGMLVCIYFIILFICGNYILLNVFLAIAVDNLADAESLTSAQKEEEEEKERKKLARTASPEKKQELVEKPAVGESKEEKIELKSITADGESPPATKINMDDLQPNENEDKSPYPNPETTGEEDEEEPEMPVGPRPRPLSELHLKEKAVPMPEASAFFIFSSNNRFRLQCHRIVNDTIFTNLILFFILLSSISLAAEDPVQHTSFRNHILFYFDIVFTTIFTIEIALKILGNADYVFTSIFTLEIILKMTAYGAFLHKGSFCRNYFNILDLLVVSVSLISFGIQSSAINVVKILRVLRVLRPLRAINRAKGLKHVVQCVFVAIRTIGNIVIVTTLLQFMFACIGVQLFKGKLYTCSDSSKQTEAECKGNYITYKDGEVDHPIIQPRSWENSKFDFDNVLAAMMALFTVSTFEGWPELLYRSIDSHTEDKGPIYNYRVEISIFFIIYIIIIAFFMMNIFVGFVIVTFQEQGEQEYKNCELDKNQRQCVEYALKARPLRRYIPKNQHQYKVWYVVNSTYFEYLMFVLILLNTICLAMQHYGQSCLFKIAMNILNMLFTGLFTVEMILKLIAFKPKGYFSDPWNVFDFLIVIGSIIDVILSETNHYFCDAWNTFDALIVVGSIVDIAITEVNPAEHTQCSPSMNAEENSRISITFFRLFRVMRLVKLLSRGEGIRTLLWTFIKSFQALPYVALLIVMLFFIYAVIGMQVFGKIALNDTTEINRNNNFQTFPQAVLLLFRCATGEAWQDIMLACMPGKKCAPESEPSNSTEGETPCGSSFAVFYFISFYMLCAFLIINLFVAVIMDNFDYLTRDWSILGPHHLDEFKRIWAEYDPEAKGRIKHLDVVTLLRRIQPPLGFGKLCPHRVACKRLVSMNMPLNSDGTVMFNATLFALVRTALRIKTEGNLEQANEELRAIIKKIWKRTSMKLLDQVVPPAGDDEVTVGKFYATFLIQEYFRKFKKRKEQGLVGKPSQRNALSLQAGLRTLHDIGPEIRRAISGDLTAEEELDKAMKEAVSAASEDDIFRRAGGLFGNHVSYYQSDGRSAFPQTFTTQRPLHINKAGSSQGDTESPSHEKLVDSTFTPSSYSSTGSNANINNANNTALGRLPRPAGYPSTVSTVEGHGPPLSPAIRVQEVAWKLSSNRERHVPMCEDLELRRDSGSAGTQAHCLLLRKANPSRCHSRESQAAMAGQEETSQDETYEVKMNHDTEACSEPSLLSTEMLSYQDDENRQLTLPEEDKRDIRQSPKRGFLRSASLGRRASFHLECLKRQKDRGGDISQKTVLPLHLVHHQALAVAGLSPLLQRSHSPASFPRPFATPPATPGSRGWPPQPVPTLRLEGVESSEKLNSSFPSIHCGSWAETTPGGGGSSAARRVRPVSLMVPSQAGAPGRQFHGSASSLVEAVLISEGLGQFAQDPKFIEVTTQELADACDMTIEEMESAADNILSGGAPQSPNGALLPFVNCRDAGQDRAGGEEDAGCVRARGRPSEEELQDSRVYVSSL

Turning to `COc1cc(NC(=O)Cc2ccc(S(F)(F)(F)(F)F)cc2)ccc1C[C@H]1COC(=O)N1`, the EC50 – broadly, the concentration at which the effect is half-maximal – in [1] was “Not Active”; in [3], “Not Active”; in data set [5] it was “Not Active”; in data set [6], 52700 nM. Further, the IC50 (commonly the concentration that gives 50% inhibition) in [2] is 2220 nM; in data set [4] it was 944 nM.
In the case of `O=C(Nc1ccc(Cl)cc1)Nc1ccc(C[C@H]2COC(=O)N2)cc1`, the EC50 result in [1] was “Not Active”; in data set [3] it was “Not Active”; in data set [7], 1110 nM; in [8] it was “Not Active”. Besides, the IC50 was 210 nM in [2] and 480 nM in data set [4].
Take `COc1cc(NC(=O)Cc2ccc(Cl)cc2Cl)ccc1C[C@H]1COC(=O)N1`: the EC50 was 198 nM in data set [1] (setting [29]), 222 nM in data set [3] (setting [30]), 349 nM in data set [5] (setting [31]) and 154 nM in data set [8] (setting [32]). Moreover, the IC50 in data set [2] is 12 nM; in data set [4] it was 16 nM; in data set [11], 8200 nM; in data set [16], 20900 nM; in data set [17] it was 9600 nM. For the same compound, the solubility (commonly the concentration that dissolves in the medium under given conditions) in [9] was 28 µM (≈ 11.5 µg/mL). In [10], the MRT (as a rule, a mean duration of stay, worked out from the concentration-time curve) is 42 min. The same compound displayed a Vdu in data set [12] of 33 L/kg. Besides, the free fraction (fraction unbound) (commonly the share of the substance not bound to proteins or other matrix) in data set [13] is 0.022. The compound further registered a fAUC in data set [14] of 0.003 µM·h. The CL free in [15] was determined as 720 mL/min/kg. Besides, in data set [18], the CLint scaled was found to be 20 mL/min/kg.
With `COc1cc(NC(=O)Cc2ccc(Cl)cc2)ccc1C[C@H]1COC(=O)N1`, the fraction unbound in [19] was found to be 0.027. For the same compound, the EC50 in data set [1] (setting [29]) is 100 nM; in data set [3] (setting [30]), 170 nM; in data set [5] (setting [31]), 370 nM; in [8] (setting [32]), 97 nM. The IC50 in [2] turned out to be 17 nM; in data set [22], 20000 nM; in [4], 49 nM; in [11] it was 10500 nM; in [16], 24500 nM; in [17], 12900 nM. In addition, in [9], the concentration in solution (solubility) was 161 µM (≈ 60.3 µg/mL). The same compound returned an MRT in data set [20] of 42 min. Besides, the bioavailability (usually the share of a dose that reaches the circulation, judged against a reference dose that is usually intravenous) in data set [21] was 27%. The same compound returned a fAUC in data set [23] of 0.228 µM·h. Moreover, the CL free in data set [24] is 605 mL/min/kg. Also, the Vdu in data set [25] came to 24 L/kg. Moreover, the CLint scaled in data set [18] is 16 mL/min/kg.
With `COc1cc(NC(=O)Cc2ccc(OC(F)(F)F)cc2)ccc1C[C@H]1COC(=O)N1`, the EC50 entry was “Not Active” in data set [1], “Not Active” in data set [3], “Not Active” in data set [5] and 64500 nM in data set [6]. Besides, the values for the IC50 in [2] and in data set [4] were 1690 nM and 1290 nM, respectively.
For the compound `Nc1nc2c(ncn2COC(CO)CO)c(=O)[nH]1`, the result in data set [26] and in data set [27] was inactive.
Turning to `O=C1N[C@@H](Cc2ccc3c(c2)CCN(Cc2ccc(Cl)cc2)C3=O)CO1`, the EC50 entry in data set [1] is “Not Active”; in data set [3] it was “Not Active”; in [7] it was 44200 nM; in [8], “Not Active”. Moreover, the IC50 was 40300 nM in [2] and 27600 nM in data set [4].
In the case of `COc1cc(NC(=O)Cc2ccc(Br)cc2)ccc1C[C@H]1COC(=O)N1`, the EC50 was 124 nM in data set [1] (setting [29]), 110 nM in [3] (setting [30]), 420 nM in data set [5] (setting [31]) and 231 nM in [6]. The IC50 in [2] was below 4 nM; in data set [4], below 4 nM; in data set [11], 12100 nM; in [16], 21100 nM; in data set [17], 11100 nM. Further, the solubility in data set [9] came out at 90 µM (≈ 37.7 µg/mL). For the same compound, in [10], the MRT worked out at 54 min. In addition, the bioavailability in data set [21] stood at 23%. The compound further gave a Vdu in data set [12] of 68 L/kg. For the same compound, the fraction unbound in [13] amounted to 0.022. Also, the fAUC in data set [14] came to 0.002 µM·h. Also, the CL free in data set [15] came to 1168 mL/min/kg. Also, in data set [18], the CLint scaled was below 16 mL/min/kg.
As for `Nc1nc2c(ncn2COCCO)c(=O)[nH]1`, the result in data set [28] was Active.
Consider `COc1nc(NC(=O)Cc2ccc(Cl)cc2)cnc1C[C@H]1COC(=O)N1`, for which the EC50 entry in data set [1] is “Not Active”; in data set [3], “Not Active”; in [7] it was above 80200 nM; in data set [6], above 80200 nM. Moreover, the figures for the IC50 in [2] and in data set [4] were 23800 nM and 24100 nM, respectively.
The compound `COc1nc(NC(=O)Cc2ccc(Cl)cc2)ccc1C[C@H]1COC(=O)N1` returned a fraction unbound in data set [19] of 0.025. Moreover, the EC50 in [1] (setting [29]) came to 70 nM; in [3] (setting [30]) it was 85 nM; in [5] (setting [31]), 249 nM; in data set [8] (setting [32]), 46 nM. Besides, the IC50 in [2] turned out to be 15 nM; in [22] it was 16000 nM; in data set [4], 44 nM; in data set [11], 10000 nM; in [16], 14200 nM; in data set [17] it was 13500 nM. In data set [20], this compound returned an MRT of 36 min. For the same compound, the bioavailability in data set [21] was 62%. In data set [23], this compound returned a fAUC of 0.299 µM·h. In [24], this compound yielded a CL free of 444 mL/min/kg. In addition, the Vdu in [25] was determined as 15 L/kg.
In the case of `COc1cc(NC(=O)Cc2ccc(Cl)cc2)ncc1C[C@H]1COC(=O)N1`, the EC50 entry in data set [1] is “Not Active”; in data set [3], “Not Active”; in data set [7], 51200 nM; in [6] it was above 80200 nM. Further, the IC50 in data set [2] worked out at 6290 nM; in [4], 15900 nM. For the same compound, the solubility in data set [9] is below 2 µM.
